Experimental data reported in patent publication US20120270237A9, “METHODS FOR THE IDENTIFICATION OF KINASE INTERACTING MOLECULES AND FOR THE PURIFICATION OF KINASE PROTEINS” (Cellzone AG, priority 2009, published 2012).

Columns and labels:
CDC2 = CDC2 (Homo sapiens, UniProt P06493); assay: Kinobeads competition binding, L-363 cell lysate; design: capturing and identification of kinases from L-363 cell lysate; endogenous in cells; host or cells: L-363 cells (DSMZ ACC49), pre-treated with MG132; settings: 10 μM free compound, L-363 lysate
Description: (§1) To one aliquot of cell lysate 10 μM of the free compound (FIG. 3, CZC31326) was added and allowed to bind to proteins in the lysate. Then the affinity matrix with the immobilized compound was added to capture proteins that were not interacting with the previously added free compound. Beads were separated from the lysate and bead bound proteins were eluted in SDS sample buffer and subsequently separated by SDS-Polyacrylamide gel electrophoresis (FIG. 8). Suitable gel bands were cut out and subjected to in-gel proteolytic digestion with trypsin. The second lysate aliquot was processed identically, however no free compound was added (DMSO solvent control). Peptides originating from samples 1 and 2 were labeled with iTRAQ reagents (iTRAQ 114 and iTRAQ 117) and the combined samples were analyzed with a nano-flow liquid chromatography system coupled online to a tandem mass spectrometer (LC-MS/MS) experiment followed by iTRAQ reporter ion quantification in the MS/MS spectra as described in Example 2.
(§2) For this experiment the human plasma cell leukaemia line L-363 was used (German Collection of Microorganisms and Cell Cultures, DSMZ number ACC49, Braunschweig, Germany). Cells were treated for three hours with 20 μM of the proteasome inhibitor MG132 (Z-Leu-Leu-Leu-al, Sigma C2211) prior to cell harvesting.

CK2a1 = CK2a1 (Homo sapiens, UniProt P68400); assay: Kinobeads competition binding, L-363 cell lysate; design: capturing and identification of kinases from L-363 cell lysate; endogenous in cells; host or cells: L-363 cells (DSMZ ACC49), pre-treated with MG132; settings: 10 μM free compound, L-363 lysate
Description: as §1, §2

CaMKK2 = CaMKK2 (Homo sapiens, UniProt Q96RR4); assay: Kinobeads competition binding, L-363 cell lysate; design: capturing and identification of kinases from L-363 cell lysate; endogenous in cells; host or cells: L-363 cells (DSMZ ACC49), pre-treated with MG132; settings: 10 μM free compound, L-363 lysate
Description: as §1, §2

TBK1 = target: T1, TBK1 (Homo sapiens, UniProt Q9UHD2); assay: Kinobeads competition binding, L-363 cell lysate; design: capturing and identification of kinases from L-363 cell lysate; endogenous in cells; host or cells: L-363 (treated with MG132 before harvest); settings: 10 μM free compound, L-363 lysate
T1 sequence (Q9UHD2 1-729): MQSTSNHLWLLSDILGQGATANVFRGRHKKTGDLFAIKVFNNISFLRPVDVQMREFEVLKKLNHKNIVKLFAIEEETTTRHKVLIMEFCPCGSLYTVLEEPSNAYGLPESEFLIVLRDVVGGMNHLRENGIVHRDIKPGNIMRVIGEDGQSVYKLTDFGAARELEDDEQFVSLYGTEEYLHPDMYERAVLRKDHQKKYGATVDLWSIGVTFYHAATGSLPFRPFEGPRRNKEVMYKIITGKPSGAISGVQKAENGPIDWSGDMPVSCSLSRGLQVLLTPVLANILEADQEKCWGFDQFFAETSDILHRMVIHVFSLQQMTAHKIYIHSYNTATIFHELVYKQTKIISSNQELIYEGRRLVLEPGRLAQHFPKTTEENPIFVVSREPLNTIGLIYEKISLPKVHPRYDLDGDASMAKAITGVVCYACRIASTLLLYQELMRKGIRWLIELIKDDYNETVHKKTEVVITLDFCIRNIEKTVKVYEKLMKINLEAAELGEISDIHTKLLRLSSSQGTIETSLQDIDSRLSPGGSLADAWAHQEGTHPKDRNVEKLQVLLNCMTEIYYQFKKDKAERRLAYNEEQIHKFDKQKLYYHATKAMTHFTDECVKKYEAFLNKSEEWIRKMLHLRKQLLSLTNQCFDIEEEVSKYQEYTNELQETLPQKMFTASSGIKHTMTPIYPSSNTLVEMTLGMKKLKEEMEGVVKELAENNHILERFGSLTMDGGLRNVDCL
Description: as §1, §2

JNK1 = JNK1 (Homo sapiens, UniProt P45983); assay: Kinobeads competition binding, HeLa Placenta lysate mix; design: Identified kinases from HeLa Placenta lysate mix with CZC31326; endogenous in cells; host or cells: HeLa cell lysate mixed with placenta tissue lysate; settings: 10 μM free compound
Description: as §1, with “10).” for “8).”

CK2a1, sequence (P68400 whole entry): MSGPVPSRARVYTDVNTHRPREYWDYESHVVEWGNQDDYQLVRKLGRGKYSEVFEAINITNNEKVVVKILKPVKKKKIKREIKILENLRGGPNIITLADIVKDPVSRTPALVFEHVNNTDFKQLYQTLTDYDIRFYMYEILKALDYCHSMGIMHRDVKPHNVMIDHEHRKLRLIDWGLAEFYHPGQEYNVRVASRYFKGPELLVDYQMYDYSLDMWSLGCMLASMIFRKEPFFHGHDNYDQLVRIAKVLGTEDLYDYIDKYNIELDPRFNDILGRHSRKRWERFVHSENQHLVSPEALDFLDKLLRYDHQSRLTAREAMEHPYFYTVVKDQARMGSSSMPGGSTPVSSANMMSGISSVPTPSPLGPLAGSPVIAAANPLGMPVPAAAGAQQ
JNK1, sequence (P45983 whole entry): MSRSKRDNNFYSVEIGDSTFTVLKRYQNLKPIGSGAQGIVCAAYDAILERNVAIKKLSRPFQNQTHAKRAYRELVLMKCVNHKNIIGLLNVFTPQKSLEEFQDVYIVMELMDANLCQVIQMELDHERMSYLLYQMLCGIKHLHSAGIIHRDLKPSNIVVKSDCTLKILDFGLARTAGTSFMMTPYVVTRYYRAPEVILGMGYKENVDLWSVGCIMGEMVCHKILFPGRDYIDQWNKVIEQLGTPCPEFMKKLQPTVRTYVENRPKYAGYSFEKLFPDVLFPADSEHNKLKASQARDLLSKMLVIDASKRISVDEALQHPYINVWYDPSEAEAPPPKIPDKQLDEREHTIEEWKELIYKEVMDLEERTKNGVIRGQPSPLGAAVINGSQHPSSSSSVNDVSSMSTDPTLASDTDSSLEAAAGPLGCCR
CaMKK2, sequence (Q96RR4 whole entry): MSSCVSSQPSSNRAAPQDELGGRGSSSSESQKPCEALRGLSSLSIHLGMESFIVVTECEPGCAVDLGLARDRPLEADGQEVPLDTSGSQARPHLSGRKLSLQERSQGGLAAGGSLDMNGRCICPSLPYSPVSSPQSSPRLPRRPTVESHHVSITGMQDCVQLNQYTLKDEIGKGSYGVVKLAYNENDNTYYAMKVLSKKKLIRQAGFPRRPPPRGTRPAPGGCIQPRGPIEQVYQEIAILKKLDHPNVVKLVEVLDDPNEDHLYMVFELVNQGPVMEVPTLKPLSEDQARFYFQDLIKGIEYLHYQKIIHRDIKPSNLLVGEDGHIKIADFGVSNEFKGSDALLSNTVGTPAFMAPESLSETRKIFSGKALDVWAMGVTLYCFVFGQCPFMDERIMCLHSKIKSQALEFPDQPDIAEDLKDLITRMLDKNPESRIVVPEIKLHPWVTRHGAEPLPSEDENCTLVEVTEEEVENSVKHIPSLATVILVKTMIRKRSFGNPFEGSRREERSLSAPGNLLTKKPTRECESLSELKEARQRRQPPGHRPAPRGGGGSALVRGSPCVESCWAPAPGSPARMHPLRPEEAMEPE
CDC2, sequence (P06493 whole entry): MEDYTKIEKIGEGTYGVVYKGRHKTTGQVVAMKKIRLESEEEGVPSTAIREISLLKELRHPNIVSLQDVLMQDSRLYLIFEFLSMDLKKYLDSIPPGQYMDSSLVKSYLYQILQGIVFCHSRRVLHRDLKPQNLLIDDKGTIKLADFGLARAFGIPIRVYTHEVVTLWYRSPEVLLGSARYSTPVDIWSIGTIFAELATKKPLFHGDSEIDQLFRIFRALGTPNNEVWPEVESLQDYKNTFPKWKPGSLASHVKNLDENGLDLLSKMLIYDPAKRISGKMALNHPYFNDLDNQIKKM

- inhibition at 10 µM (CDC2): 95.1%
- inhibition at 10 µM (CK2a1): 97.9%
- inhibition at 10 µM (CaMKK2): 97%
- inhibition at 10 µM (TBK1): 95.8%
- Competition % (JNK1): 85%
Compound: CS(=O)(=O)Nc1ccccc1Nc1nc(Nc2cccc(OCCN)c2)ncc1Cl [CZC31326, N-(2-(2-(3-(2-aminoethoxy)phenylamino)-5-chloropyrimidin-4-ylamino)phenyl)methanesulfonamide]
